Source: the supplement of paper PMC10883282
Counter-ions that a name gives are not always drawn. ± gives the standard deviation of the averaged measurements.

Test system: SK-LMS-1
Test: relative viability vs DMSO control (72 h) (fraction); higher = more viable cells
Outline: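 Sarcoma cell lines were grown in 384-well plates seeded toward 80–90% confluence and exposed 24 h later to serially diluted compound. After 72 h at 37 °C and 5% CO2, with 0.1% DMSO vehicle and a 5 µM positive control on the plates, ATPLite was read. Relative viability, given as percent growth averaged over up to triplicate wells, was rescaled so that 1 is full and 0 is none.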

| Structure (SMILES) | relative viability (0.00017 µM) | relative viability (0.00051 µM) | relative viability (0.00152 µM) | relative viability (0.00457 µM) | relative viability (0.01372 µM) | relative viability (0.04115 µM) | relative viability (0.1235 µM) | relative viability (0.3704 µM) | relative viability (1.111 µM) | relative viability (3.333 µM) | relative viability (10 µM) |
| --- | --- | --- | --- | --- | --- | --- | --- | --- | --- | --- | --- |
| CC[C@H](Nc1ncnc2[nH]cnc12)c1nc2cccc(F)c2c(=O)n1-c1ccccc1 [Idelalisib] | 1.02 ± 0.019 | 1.02 ± 0.046 | 1.02 ± 0.084 | 1.01 ± 0.028 | 0.991 ± 0.034 | 1.02 ± 0.041 | 0.972 ± 0.049 | 0.929 ± 0.035 | 0.838 ± 0.049 | 0.71 ± 0.03 | 0.618 ± 0.025 |
| COc1cccc2c1C(=O)c1c(O)c3c(c(O)c1C2=O)C[C@@](O)(C(=O)CO)C[C@@H]3O[C@H]1C[C@H](N)[C@H](O)[C@H](C)O1 [Doxorubicin Hydrochloride] | 0.998 ± 0.032 | 1.02 ± 0.038 | 1.02 ± 0.044 | 1.03 ± 0.024 | 0.967 ± 0.047 | 0.781 ± 0.011 | 0.649 ± 0.046 | 0.313 ± 0.025 | 0.209 ± 0.069 | 0.296 ± 0.0043 | 0.293 ± 0.0053 |
| Cc1ccc(NC(=O)c2ccc(CN3CCN(C)CC3)cc2)cc1Nc1nc(-c2cccnc2)cs1 [Masitinib] | 1.03 ± 0.013 | 1.05 ± 0.031 | 1.03 ± 0.022 | 1.02 ± 0.029 | 1.02 ± 0.029 | 1.04 ± 0.03 | 1.01 ± 0.018 | 1.008 ± 0.0068 | 0.953 ± 0.051 | 0.605 ± 0.0079 | 0.103 ± 0.0046 |
| Cn1cnc2c(F)c(Nc3ccc(Br)cc3F)c(C(=O)NOCCO)cc21 [Binimetinib] | 1.11 ± 0.03 | 1.16 ± 0.045 | 1.13 ± 0.034 | 1.07 ± 0.073 | 1 ± 0.011 | 0.879 ± 0.01 | 0.725 ± 0.039 | 0.646 ± 0.038 | 0.61 ± 0.016 | 0.484 ± 0.011 | 0.375 ± 0.028 |
| CC(=O)Nc1cccc(-n2c(=O)n(C3CC3)c(=O)c3c(Nc4ccc(I)cc4F)n(C)c(=O)c(C)c32)c1 [Trametinib] | 1.01 ± 0.027 | 1.02 ± 0.06 | 1.06 ± 0.03 | 0.905 ± 0.034 | 0.575 ± 0.025 | 0.399 ± 0.01 | 0.327 ± 0.0053 | 0.27 ± 0.0086 | 0.25 ± 0.0039 | 0.225 ± 0.0081 | 0.193 ± 0.0022 |
| Cc1cc(Nc2ncnc3ccc(NC4=NC(C)(C)CO4)cc23)ccc1Oc1ccn2ncnc2c1 [Tucatinib] | 1.1 ± 0.022 | 1.09 ± 0.06 | 1.08 ± 0.041 | 1.09 ± 0.058 | 1.08 ± 0.047 | 1.08 ± 0.034 | 1.08 ± 0.033 | 1.09 ± 0.055 | 1.09 ± 0.045 | 1.05 ± 0.025 | 0.7801 ± 0.0053 |
| CCN1CCN(Cc2ccc(Nc3ncc(F)c(-c4cc(F)c5nc(C)n(C(C)C)c5c4)n3)nc2)CC1 [Abemaciclib] | 1.03 ± 0.012 | 1.05 ± 0.019 | 1.05 ± 0.057 | 1.02 ± 0.033 | 1.04 ± 0.024 | 1.01 ± 0.021 | 0.945 ± 0.037 | 0.9498 ± 0.0093 | 0.926 ± 0.043 | 0.88 ± 0.042 | 0.873 ± 0.02 |
| Cc1nc(-c2cn3c(n2)-c2ccc(-c4cnn(C(C)(C)C(N)=O)c4)cc2OCC3)n(C(C)C)n1 [Taselisib] | 0.978 ± 0.027 | 1.035 ± 0.0056 | 0.993 ± 0.043 | 0.9916 ± 0.0093 | 0.949 ± 0.021 | 0.833 ± 0.017 | 0.739 ± 0.018 | 0.676 ± 0.011 | 0.6 ± 0.023 | 0.454 ± 0.012 | 0.315 ± 0.016 |
| C[C@@H]1COCCN1c1cc(-c2ccnn2C)c2ccnc(-c3ccn[nH]3)c2n1 | 0.9973 ± 0.0066 | 0.992 ± 0.064 | 0.989 ± 0.033 | 1 ± 0.051 | 1 ± 0.024 | 0.928 ± 0.056 | 0.785 ± 0.035 | 0.571 ± 0.016 | 0.371 ± 0.025 | 0.271 ± 0.0038 | 0.234 ± 0.0024 |
| CO[C@H]1C[C@@H]2CC[C@@H](C)[C@@](O)(O2)C(=O)C(=O)N2CCCC[C@H]2C(=O)O[C@H]([C@H](C)C[C@@H]2CC[C@@H](OP(C)(C)=O)[C@H](OC)C2)CC(=O)[C@H](C)/C=C(\C)[C@@H](O)[C@@H](OC)C(=O)[C@H](C)C[C@H](C)/C=C/C=C/C=C/1C [Ridaforolimus] | 1.01 ± 0.067 | 0.903 ± 0.025 | 0.753 ± 0.016 | 0.67 ± 0.018 | 0.632 ± 0.029 | 0.594 ± 0.031 | 0.559 ± 0.022 | 0.563 ± 0.031 | 0.554 ± 0.021 | 0.5602 ± 0.0032 | 0.5145 ± 0.0018 |
| CCc1cc2c(cc1N1CCC(N3CCOCC3)CC1)C(C)(C)c1[nH]c3cc(C#N)ccc3c1C2=O [Alectinib] | 1.06 ± 0.056 | 1.1 ± 0.043 | 1.08 ± 0.041 | 1.1 ± 0.027 | 1.12 ± 0.018 | 1.08 ± 0.06 | 1.119 ± 0.0081 | 1.12 ± 0.0046 | 1.1 ± 0.019 | 1.11 ± 0.021 | 1.08 ± 0.016 |
| COCc1c(-c2cc3cc(C)cc(OC)c3s2)c2c(N)ncnn2c1CN1CCNC(=O)C1 [Rogaratinib] | 1.01 ± 0.034 | 0.992 ± 0.026 | 1.02 ± 0.022 | 1.01 ± 0.044 | 0.995 ± 0.022 | 0.992 ± 0.035 | 1 ± 0.01 | 0.975 ± 0.017 | 0.96 ± 0.036 | 0.76 ± 0.019 | 0.589 ± 0.017 |
| C[C@@H]1CCN(C(=O)CC#N)C[C@@H]1N(C)c1ncnc2[nH]ccc12 [Tofacitinib] | 1.08 ± 0.053 | 1.05 ± 0.057 | 1.1 ± 0.057 | 1.11 ± 0.042 | 1.09 ± 0.064 | 1.07 ± 0.031 | 1.062 ± 0.0089 | 1.07 ± 0.022 | 1.07 ± 0.039 | 1.03 ± 0.039 | 0.902 ± 0.056 |
| O=C(Cc1ccc(-c2ccc(OCCN3CCOCC3)cc2)cn1)NCc1ccccc1 [KX2-391] | 1.03 ± 0.047 | 1.02 ± 0.02 | 1.05 ± 0.019 | 1 ± 0.038 | 0.99 ± 0.038 | 0.704 ± 0.034 | 0.537 ± 0.023 | 0.361 ± 0.0063 | 0.338 ± 0.021 | 0.344 ± 0.018 | 0.333 ± 0.0098 |
| C[C@@H](c1ccc2nccn2c1)n1nnc2ncc(-c3cnn(C)c3)nc21 [Volitinib] | 1.03 ± 0.013 | 0.979 ± 0.016 | 0.975 ± 0.027 | 0.958 ± 0.027 | 0.763 ± 0.019 | 0.636 ± 0.017 | 0.548 ± 0.016 | 0.554 ± 0.024 | 0.546 ± 0.019 | 0.537 ± 0.016 | 0.538 ± 0.0092 |
| C[C@]1(O)C[C@@H](c2nc(-c3ccc4ccc(-c5ccccc5)nc4c3)c3c(N)nccn32)C1 [Linsitinib] | 1.04 ± 0.02 | 1.07 ± 0.022 | 1.05 ± 0.067 | 1.07 ± 0.025 | 1.04 ± 0.022 | 1.01 ± 0.025 | 1.01 ± 0.034 | 1.03 ± 0.019 | 1.01 ± 0.026 | 0.938 ± 0.011 | 0.71 ± 0.027 |
| COc1cc2c(Oc3ccc4[nH]c(C)cc4c3F)ncnc2cc1OCCCN1CCCC1 [Cediranib] | 1.01 ± 0.011 | 1.02 ± 0.028 | 1.02 ± 0.038 | 1.03 ± 0.052 | 0.989 ± 0.025 | 1.02 ± 0.042 | 0.98 ± 0.017 | 0.977 ± 0.025 | 0.925 ± 0.013 | 0.911 ± 0.029 | 0.462 ± 0.066 |
| CC(C)(C)c1cc(NC(=O)Nc2ccc(-c3cn4c(n3)sc3cc(OCCN5CCOCC5)ccc34)cc2)no1 [Quizartinib] | 1.05 ± 0.018 | 1.07 ± 0.038 | 1.07 ± 0.029 | 1.03 ± 0.042 | 1.06 ± 0.043 | 1.05 ± 0.04 | 1.06 ± 0.018 | 0.979 ± 0.04 | 0.932 ± 0.019 | 0.832 ± 0.045 | 0.528 ± 0.029 |
| COc1cc2/c(=N/c3ccc(Br)cc3F)nc[nH]c2cc1OCC1CCN(C)CC1 [Vandetanib] | 0.994 ± 0.015 | 1.01 ± 0.029 | 1.02 ± 0.049 | 1.08 ± 0.015 | 1.02 ± 0.09 | 1.05 ± 0.039 | 1.01 ± 0.015 | 1.03 ± 0.074 | 0.939 ± 0.011 | 0.484 ± 0.0052 | 0.103 ± 0.014 |
